These are literature values, as cited in patent US20010006649A1, “STABLE ORAL PHARMACEUTICAL DOSAGE FORMS” (priority 1997, published 2001).

For series [1] the following is noted: enteric granule formulations, alkaline stabilizers screened.
For series [2] the following is noted: omeprazole solution, pH-decomposition rate profile.

`Cc1c(OCC(F)(F)F)ccnc1C[S+]([O-])c1nc2ccccc2[nH]1` (stereo not drawn) [Lansoprazole, 2-[[[3-methyl-4-(2,2,2-trifluroethoxy)-2-pyridyl]methyl]sulfinyl] benzimidazole]: the “stability when exposed to light” value was “relatively stable”. In addition, in series [1], the “optimal pH stability” value is given as 9.

`COc1ccc2[nH]c([S+]([O-])Cc3ncc(C)c(OC)c3C)nc2c1` (stereo not drawn) [omeprazole, 2-[2-(3,5-dimethyl-4-methoxy)-pyridylmethylsulfinyl]-(5-methoxy)-benzimidazole]: the “pH of maximum stability” value in series [2] is 11.
